A value given as a limit tells only on which side of the number the result lay.

Assay type in all cases: functional
Details in all cases: Homo sapiens

One test deals with A549. Nature of the test: Growth inhibition against A549 cell line was evaluated.
Another test has as its system NCI-H46. Nature of the test: Growth inhibition against NCI-H460 cell line was evaluated.
The next test deals with HCT-116. Kind of test: Growth inhibition against HCT116 cell line was evaluated.

On to `CCCCCCCCCCCCOC(=O)[C@H](O)C/C=C\C[C@@H]1O[C@@H]2/C=C/C/C=C/C(C)=C\[C@H]3O[C@@H](C/C=C/C=C/C(=O)O[C@H](C2)[C@@]1(C)CO)C[C@H](O)[C@H]3C`, for which the results for the GI50 in the test with A549, with NCI-H46 and with HCT-116 were 200 nM, 170 nM and 190 nM, respectively.

In the case of `C=C(CCC(C)C)COC(=O)[C@H](O)C/C=C\C[C@@H]1O[C@@H]2/C=C/C/C=C/C(C)=C\[C@H]3O[C@@H](C/C=C/C=C/C(=O)O[C@H](C2)[C@@]1(C)CCO)C[C@H](O)[C@H]3C`, the values for the GI50 in the test on A549, in the test on NCI-H46 and in the test with HCT-116 were 800 nM, 1000 nM and 1800 nM, respectively.

For the molecule `C=C(CCC(C)C)COC(=O)[C@H](O)C/C=C\C[C@@H]1O[C@@H]2/C=C/C/C=C/C(C)=C\[C@@H]3C[C@@H](O)C[C@H](C/C=C/C=C/C(=O)O[C@H](C2)[C@@]1(C)CO)O3`, the 50% growth inhibitory concentration (GI50) – broadly, the concentration that inhibits growth by half – with A549 is 100 nM; in the test on NCI-H46, 65 nM; in the test on HCT-116, 45 nM.

On to `C=C(CCC(C)C)COC(=O)[C@H](O)C/C=C\C[C@@H]1O[C@@H]2/C=C/C/C=C/C(C)=C\[C@H]3O[C@@H](C/C=C/C=C/C(=O)O[C@H](C2)[C@@]1(C)CO)C[C@H](O)[C@H]3C` [LASONOLIDE A], for which the concentration for 50% growth inhibition (GI50) with A549 is 15 nM; in the test with NCI-H46 it was < 3 nM; in the test with HCT-116, 3 nM.

On to `CCOC(=O)[C@H](O)C/C=C\C[C@@H]1O[C@@H]2/C=C/C/C=C/C(C)=C\[C@H]3O[C@@H](C/C=C/C=C/C(=O)O[C@H](C2)[C@@]1(C)CO)C[C@H](O)[C@H]3C` [LASONOLIDE E], for which the GI50 was 7 nM in the test on A549, 15 nM with NCI-H46 and 100 nM with HCT-116.

The values above are taken from ChEMBL document CHEMBL1147516, “Synthesis and evaluation of lasonolide A analogues” (2004).
